Where two headings read alike, the source gives them in different places.
Columns and labels:
[1] = tested on: NCI-H1944; assay: AKR1C3-dependent cytotoxicity, NSCLC cell line NCI-H1944; format: cell-based; conditions: Homo sapiens
Description: (§1) The tested compound was then added. The compound was dissolved in 100% DMSO at 200 times of the desired final test concentration. When the medicament was added, the compound was further diluted to 4 times of the desired final test concentration by using the complete medium. 50 μL of aliquots of the compound with specific concentration were added to the microwells containing 150 μL of medium, and then the final medicament concentration was obtained. […] The medicament was then washed. […] After the incubation was finished, the Alamar Blue was used to analyze and quantify the living cells.

[2] = tested on: SNU886; assay: Cytotoxicity on hepatocellular carcinoma cell line SNU886; format: cell-based
Description: (§2) If not otherwise specified, IC50 values were measured by the following experimental methods:
(§3) a) Cells were plated for 24 hours, and then the compounds acted singly. 99 μL of growth medium was supplemented per well, and then 1 μL of 200× compound was added, gently shaken to ensure uniform mixing, and then placed in a 37° C., 5% CO2 incubator.
(§4) b) The cell plate was placed in the incubator for 72 hours.
(§5) b) 100 μL of CTG reagent (CelltiterGlo kit) was added to each well, the plate was placed in a rapid oscillator and shaken for 2 minutes, and then placed at room temperature for 30 minutes away from light.
(§6) The IC50 was calculated using GraphPad Prism 8 software and the IC50 (half inhibitory concentration) of the compounds was obtained using the following non-linear fitting formula: […]
(§7) Using the same experimental methods as described above, Compounds A, B and C were further tested for cytotoxicity against different hepatocellular carcinoma (HCC) cell lines SNU354, SNU886, MHCC97H and huH-1, and the results were shown in Table 2 below: […]

[3] = tested on: NCIH2106; assay: AKR1C3-dependent cytotoxicity, NSCLC cell line NCIH2106; format: cell-based
Description: as §1

[4] = tested on: MHCC97H; assay: Cytotoxicity on hepatocellular carcinoma cell line MHCC97H; format: cell-based
Description: as §2, §3, §4, §5, §6, §7

[5] = Plasma stability test, rat; format: in vitro ADME; conditions: 5 μM, 37° C.
Description: (§8) The pH of the plasma was checked and recorded. Note: a.
(§9) The final concentration of solvent was 0.5%.
(§10) The assay was performed in duplicate. […] The tubes were mixed by vortex for 5 minutes.

[6] = MTD assay and toxicokinetics of Compound A, single 30 min intravenous infusion
[7] = Plasma stability test, monkey; format: in vitro ADME; conditions: 37° C.
Description: as §8, §9, §10

[8] = biological target: T1, P-gp (Homo sapiens, UniProt P08183); assay: P-gp substrate evaluation, MDCKII-MDR1 penetration test with or without Verapamil; format: in vitro ADME
T1 construct: expressed in transfected cells; host or cells: MDCKII-MDR1 cells
Description: The conditions of the incubator were set as 37° C., 5% CO2, and 95% of the relative humidity.
After that, the MDCKII-MDR1 cells can be used for the penetration test.
(1) MDCKII-MDR1 transwell culture plate was taken out from the incubator.
(6) The upper and lower transportations were pooled and then incubated at 37° C. for 2 h.
After the sample tubes were vortexed for 10 min, and centrifuged at 3220 g for 30 min. […] Each sample was adopted to the three parallel incubation.
Efflux Ratio was calculated by the following formula: […]
Recovery was calculated by the following formula: […]

[9] = Plasma stability test, human; format: in vitro ADME; conditions: 37° C.
Description: as §8, §9, §10

[10] = tested on: CAL12T; assay: AKR1C3-dependent cytotoxicity, NSCLC cell line CAL12T; format: cell-based; conditions: Homo sapiens, CAL-12T
Description: as §1

[11] = tested on: NCI-H1792; assay: AKR1C3-dependent cytotoxicity, NSCLC cell line NCI-H1792; format: cell-based; conditions: Homo sapiens
Description: as §1

[12] = tested on: HuPrime model LI6664 human liver cancer; assay: In vivo pharmacodynamics, liver cancer LI6664 PDX model; set-up: species or system BALB/c nude mice; conditions: for relative tumor inhibition rate TGI (%): QWx3; for Relative tumor volume (x ± S) / Tumor volume (x ± S): mean ± standard error; for Tumor volume (x ± S): in mm³ (unit assumed)
Description: Experiment Instruction: BALB/c nude mice were subcutaneously inoculated with HuPrime® model LI6664 tumor blocks to establish a subcutaneous transplantation tumor model of human liver cancer. […] Among them, 7.5% anhydrous ethanol+7.5% polyoxyethylene (35) castor oil+85% glucose injection D5W (pH 7.4) vehicle control group was administered by tail vein once a week for 3 consecutive weeks; test drug AST-3424 0.3 mg/kg and 1 mg/kg groups were administered by tail vein injection once a day for 5 consecutive days, followed by 2 days off, followed by 2 weeks off, and then continuously administered for 5 consecutive days; the test drug AST-3424 1.25 mg/kg group was administered by tail vein injection once a week for 2 consecutive weeks, followed by one week off, and then continuously administered for 2 consecutive weeks, Compound A 0.5 mg/kg, 1.5 mg/kg, and 4.5 mg/kg groups were administered by tail vein injection once a week for three consecutive weeks, followed by 1 week off, and then administered for three consecutive weeks. […] The efficacy was evaluated according to the relative tumor inhibition rate TGI (%), and the safety was evaluated according to the change in body weight and the death of the animals.

[13] = tested on: NCI-H2228; assay: AKR1C3-dependent cytotoxicity, NSCLC cell line NCI-H2228; format: cell-based; conditions: Homo sapiens
Description: as §1

T1 sequence (P08183 whole entry): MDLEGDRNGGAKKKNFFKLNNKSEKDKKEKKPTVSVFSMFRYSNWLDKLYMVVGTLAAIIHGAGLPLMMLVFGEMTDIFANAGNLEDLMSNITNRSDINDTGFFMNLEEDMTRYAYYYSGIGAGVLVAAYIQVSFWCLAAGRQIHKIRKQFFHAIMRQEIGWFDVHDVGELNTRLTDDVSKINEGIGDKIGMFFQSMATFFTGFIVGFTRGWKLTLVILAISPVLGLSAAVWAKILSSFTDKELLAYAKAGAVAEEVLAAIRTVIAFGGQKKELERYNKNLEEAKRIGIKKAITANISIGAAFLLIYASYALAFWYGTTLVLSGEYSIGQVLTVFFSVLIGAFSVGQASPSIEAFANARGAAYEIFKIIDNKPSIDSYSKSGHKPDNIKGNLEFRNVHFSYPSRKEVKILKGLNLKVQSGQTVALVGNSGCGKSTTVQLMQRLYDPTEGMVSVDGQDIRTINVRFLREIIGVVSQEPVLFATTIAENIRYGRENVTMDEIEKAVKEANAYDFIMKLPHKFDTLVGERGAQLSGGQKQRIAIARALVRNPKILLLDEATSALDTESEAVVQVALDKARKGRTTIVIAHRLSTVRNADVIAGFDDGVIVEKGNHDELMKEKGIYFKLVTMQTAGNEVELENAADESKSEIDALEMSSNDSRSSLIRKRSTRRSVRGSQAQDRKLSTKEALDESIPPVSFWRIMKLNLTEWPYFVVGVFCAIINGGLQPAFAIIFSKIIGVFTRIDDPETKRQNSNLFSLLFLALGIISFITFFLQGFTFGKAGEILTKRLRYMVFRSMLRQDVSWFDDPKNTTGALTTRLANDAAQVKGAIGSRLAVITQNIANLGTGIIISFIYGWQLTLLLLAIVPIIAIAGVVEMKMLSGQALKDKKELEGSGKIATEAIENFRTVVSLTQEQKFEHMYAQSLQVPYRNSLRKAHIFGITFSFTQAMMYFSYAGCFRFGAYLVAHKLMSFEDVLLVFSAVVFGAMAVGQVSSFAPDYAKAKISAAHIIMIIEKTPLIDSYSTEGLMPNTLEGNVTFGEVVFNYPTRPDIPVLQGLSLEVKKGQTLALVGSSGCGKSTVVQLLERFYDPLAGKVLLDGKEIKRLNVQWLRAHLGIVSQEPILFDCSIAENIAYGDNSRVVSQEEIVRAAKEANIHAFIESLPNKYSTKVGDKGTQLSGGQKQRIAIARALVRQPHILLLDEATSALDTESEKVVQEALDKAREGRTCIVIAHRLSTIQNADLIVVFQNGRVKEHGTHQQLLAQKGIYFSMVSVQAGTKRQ

With `O=[N+]([O-])c1ccc(C(OP(=O)(N2CC2)N2CC2)C(F)(F)F)cc1Oc1ccc(-c2ccc(F)cc2)c(F)c1` (racemic) [Compound A] the IC50 [1] was 71.3 nM, the “ratio A/B” value ([2]; IC50 ratio) was 1.66 and the “ratio A/C” value ([2]; IC50 ratio) was 0.75. It also gave an IC50 ([2]; SNU-886) of 628 nM, an IC50 [3] of 6860 nM and an IC50 ([4]; Homo sapiens) of 396 nM. For the same molecule, the “ratio A/B” value ([4]; IC50 ratio) was 1.63, the “ratio A/C” value ([4]; IC50 ratio) was 0.70 and the “Percentage remaining after 2 hours in plasma” value (“Percentage remaining” below) [5] was 33.03%. For the same molecule, the exposure ([6]; 1, 3, 6 mg/kg) was “dose proportional”, the survival ([6]; 1, 3, 6 mg/kg, until planned dissection) was “all animals survived” and the MTD at 14 days ([6]; both, monkey (machins), in vivo, iv) was > 6 mg/kg. For the same molecule, the clearance ([6]; both, monkey (machins), plasma, iv) was 22.3 to 45.3 mL/min/kg, the clinical observation ([6]; females, 3 mg/kg and 6 mg/kg) was “slight erythema at the site of the administration” and the clinical observation ([6]; males and females, 6 mg/kg) was “Soft stools”. The “Percentage remaining” value ([7]; Monkey plasma, 5 μM) was 79.20%, the “remained in plasma after 2 hours” value ([7]; monkey plasma) was 79.20% and the P-gp substrate ([8]; MDCKII-MDR1, with and without Verapamil) was “not substrates for Pgp”. For the same molecule, the Papp A→B at 2 h ([8]; dog, MDCK-MDR1) was 0.18 ×10⁻⁶ cm/s, the Papp B→A at 2 h ([8]; dog, MDCK-MDR1) was 0.24 ×10⁻⁶ cm/s and the recovery at 2 h ([8]; dog, MDCK-MDR1, Verapamil 0 μM, read-out: Recovery (%) AP-BL) was 5.03%. For the same molecule, the recovery at 2 h ([8]; dog, MDCK-MDR1, Verapamil 0 μM, read-out: Recovery (%) BL-AP) was 4.34%, the recovery at 2 h ([8]; dog, MDCK-MDR1, with Verapamil 100 μM, Verapamil 100 μM, read-out: Recovery (%) AP-BL) was 5.7% and the recovery at 2 h ([8]; dog, MDCK-MDR1, with Verapamil 100 μM, Verapamil 100 μM, read-out: Recovery (%) BL-AP) was 12.6%. For the same molecule, the “Percentage remaining” value ([9]; Human plasma, 5 μM) was 60.06%, the “remained in plasma after 2 hours” value ([9]; human plasma) was 60.06% and the IC50 [10] was 8080 nM. The IC50 [11] was 375 nM, the “relative tumor inhibition rate TGI (%)” value ([12]; 0.5 mg/kg i.v. QWx3, 1 week off, Day 28) was 34.07% and the “relative tumor inhibition rate TGI (%)” value ([12]; 1.5 mg/kg i.v. QWx3, 1 week off, Day 28) was 66.57%. The “relative tumor inhibition rate TGI (%)” value ([12]; 4.5 mg/kg i.v. QWx3, 1 week off, Day 28) was 77.05%, the “T/C (%)” value ([12]; Compound A 0.5 mg/kg, Day 28) was 65.93% and the “Relative tumor volume (x ± S)” value ([12]; Compound A 0.5 mg/kg, Day 28) was 8.51 ± 2.07. For the same molecule, the “Tumor volume (x ± S)” value ([12]; Compound A 0.5 mg/kg, Day 28) was 920.46 ± 215.96, the “T/C (%)” value ([12]; Compound A 1.5 mg/kg, Day 28) was 33.43% and the “Relative tumor volume (x ± S)” value ([12]; Compound A 1.5 mg/kg, Day 28) was 4.31 ± 0.54. For the same molecule, the “Tumor volume (x ± S)” value ([12]; Compound A 1.5 mg/kg, Day 28) was 466.31 ± 77.63, the “T/C (%)” value ([12]; Compound A 4.5 mg/kg, Day 28) was 22.95% and the “Relative tumor volume (x ± S)” value ([12]; Compound A 4.5 mg/kg, Day 28) was 2.96 ± 0.27. For the same molecule, the “Tumor volume (x ± S)” value ([12]; Compound A 4.5 mg/kg, Day 28) was 320.72 ± 40.03, the “Size of tumor volume” value ([12]; Group6, Compound A 0.5 mg/kg, Day 0) was 108.44 mm^3 and the “Size of tumor volume” value ([12]; Group6, Compound A 0.5 mg/kg, Day 4) was 201.76 mm^3. The “Size of tumor volume” value ([12]; Group6, Compound A 0.5 mg/kg, Day 7) was 277.38 mm^3, the “Size of tumor volume” value ([12]; Group6, Compound A 0.5 mg/kg, Day 11) was 301.39 mm^3 and the “Size of tumor volume” value ([12]; Group6, Compound A 0.5 mg/kg, Day 14) was 347.30 mm^3. For the same molecule, the “Size of tumor volume” value ([12]; Group6, Compound A 0.5 mg/kg, Day 18) was 434.18 mm^3, the “Size of tumor volume” value ([12]; Group6, Compound A 0.5 mg/kg, Day 21) was 518.23 mm^3 and the “Size of tumor volume” value ([12]; Group6, Compound A 0.5 mg/kg, Day 25) was 746.19 mm^3. For the same molecule, the “Size of tumor volume” value ([12]; Group6, Compound A 0.5 mg/kg, Day 28) was 920.46 mm^3, the “Size of tumor volume” value ([12]; Group6, Compound A 0.5 mg/kg, Day 32) was 1036.44 mm^3 and the “Size of tumor volume” value ([12]; Group6, Compound A 0.5 mg/kg, Day 35) was 1258.05 mm^3. The “Size of tumor volume” value ([12]; Group6, Compound A 0.5 mg/kg, Day 39) was 1426.66 mm^3, the “Size of tumor volume” value ([12]; Group6, Compound A 0.5 mg/kg, Day 42) was 1661.81 mm^3 and the “Size of tumor volume” value ([12]; Group6, Compound A 0.5 mg/kg, Day 46) was 2037.97 mm^3. For the same molecule, the “Size of tumor volume” value ([12]; Group6, Compound A 0.5 mg/kg, Day 49) was 1746.71 mm^3, the “Size of tumor volume” value ([12]; Group7, Compound A 1.5 mg/kg, Day 0) was 108.25 mm^3 and the “Size of tumor volume” value ([12]; Group7, Compound A 1.5 mg/kg, Day 4) was 127.56 mm^3. For the same molecule, the “Size of tumor volume” value ([12]; Group7, Compound A 1.5 mg/kg, Day 7) was 152.00 mm^3, the “Size of tumor volume” value ([12]; Group7, Compound A 1.5 mg/kg, Day 11) was 161.35 mm^3 and the “Size of tumor volume” value ([12]; Group7, Compound A 1.5 mg/kg, Day 14) was 206.44 mm^3. For the same molecule, the “Size of tumor volume” value ([12]; Group7, Compound A 1.5 mg/kg, Day 18) was 225.71 mm^3, the “Size of tumor volume” value ([12]; Group7, Compound A 1.5 mg/kg, Day 21) was 287.02 mm^3 and the “Size of tumor volume” value ([12]; Group7, Compound A 1.5 mg/kg, Day 25) was 398.93 mm^3. The “Size of tumor volume” value ([12]; Group7, Compound A 1.5 mg/kg, Day 28) was 466.31 mm^3, the “Size of tumor volume” value ([12]; Group7, Compound A 1.5 mg/kg, Day 32) was 543.94 mm^3 and the “Size of tumor volume” value ([12]; Group7, Compound A 1.5 mg/kg, Day 35) was 643.84 mm^3. The “Size of tumor volume” value ([12]; Group7, Compound A 1.5 mg/kg, Day 39) was 805.84 mm^3, the “Size of tumor volume” value ([12]; Group7, Compound A 1.5 mg/kg, Day 42) was 1060.20 mm^3 and the “Size of tumor volume” value ([12]; Group7, Compound A 1.5 mg/kg, Day 46) was 1179.82 mm^3. For the same molecule, the “Size of tumor volume” value ([12]; Group7, Compound A 1.5 mg/kg, Day 49) was 1407.10 mm^3, the “Size of tumor volume” value ([12]; Group8, Compound A 4.5 mg/kg, Day 0) was 108.26 mm^3 and the “Size of tumor volume” value ([12]; Group8, Compound A 4.5 mg/kg, Day 4) was 125.30 mm^3. The “Size of tumor volume” value ([12]; Group8, Compound A 4.5 mg/kg, Day 7) was 142.58 mm^3, the “Size of tumor volume” value ([12]; Group8, Compound A 4.5 mg/kg, Day 11) was 150.82 mm^3 and the “Size of tumor volume” value ([12]; Group8, Compound A 4.5 mg/kg, Day 14) was 176.69 mm^3. The “Size of tumor volume” value ([12]; Group8, Compound A 4.5 mg/kg, Day 18) was 180.29 mm^3, the “Size of tumor volume” value ([12]; Group8, Compound A 4.5 mg/kg, Day 21) was 201.42 mm^3 and the “Size of tumor volume” value ([12]; Group8, Compound A 4.5 mg/kg, Day 25) was 282.76 mm^3. The “Size of tumor volume” value ([12]; Group8, Compound A 4.5 mg/kg, Day 28) was 320.72 mm^3, the “Size of tumor volume” value ([12]; Group8, Compound A 4.5 mg/kg, Day 32) was 339.73 mm^3 and the “Size of tumor volume” value ([12]; Group8, Compound A 4.5 mg/kg, Day 35) was 360.45 mm^3. For the same molecule, the “Size of tumor volume” value ([12]; Group8, Compound A 4.5 mg/kg, Day 39) was 391.38 mm^3, the “Size of tumor volume” value ([12]; Group8, Compound A 4.5 mg/kg, Day 42) was 417.79 mm^3 and the “Size of tumor volume” value ([12]; Group8, Compound A 4.5 mg/kg, Day 46) was 451.01 mm^3. For the same molecule, the “Size of tumor volume” value ([12]; Group8, Compound A 4.5 mg/kg, Day 49) was 538.20 mm^3, the weight loss ([12]; treatment period, tested doses) was “no weight loss” and the IC50 [13] was 12.8 nM.
